Assay results taken from US9566265B2, “Carbazole compounds and therapeutic uses of the compounds” (Incuron, LLC, priority 2008, dated 2017).
Converted amounts (≈) assume the structure as drawn. Like-named read-outs stand apart in the source and are kept apart here.

What was measured:
Bacillus subtilis = assay: antibacterial cytotoxicity assay, gram(+) bacteria (OD600); type: cell-based; settings: B. subtilis, 48 hours, over a range of potencies; FIG. 13B
Description: In vitro test to evaluate the effect of carbazole compounds on gram(-) and gram(+) bacteria. Two days prior to the start of the cytotoxicity assay, inoculate DH5-α and B. subtilis into 1 ml of corresponding media from glycerol stocks. Allow to grow during the course of the day at 37° C. with shaking. Streak each bacteria on the appropriate agar plates using a sterile inoculation loop and allow to grow overnight at 37° C. in the bacteria incubator. Using a sterile inoculation loop, pick a single colony of bacteria and inoculate 5 ml of the corresponding media in a 14 ml snap cap tube. Grow overnight ( 16 h) at 37° C. with shaking. […] Dilute 5 ml cultures of DH5-α and B. subtilis to an OD600 nm of 0.002, which corresponds to about 2×10^6 cells/ml in a volume sufficient for the experiment (dependent on the number of plates). Plate out 50 μl into each well of X 96-well plates (X=# plates needed for a given experiment). […] Chemicals for testing are prepared by dilution of stock solutions in LB Broth or Nutrient Broth for DH5-α and B. subtilis studies, respectively. Cells are treated with the final chemical concentrations presented in the scheme below (Table 2). Stock solutions are made up in DMSO. […] However, this concentration is dependent on the solubility of a given chemical and actual stock concentrations must be noted at time of experiment. Each library chemical to be tested requires 2 rows of a 96-well plate, thus 4 chemicals ([…]) can be tested in one plate simultaneously. In addition to test chemicals, each plate should include positive and negative controls. As positive control, ampicillin is used at 100 μg/ml. […] Dilutions of chemicals to be added to the plate are made up as 2× concentrations in appropriate bacteria media and added to corresponding wells in a volume of 50 μl. […] This process is repeated until all 10 2× doses are prepared. […] Following the addition of carbazole compounds to 96-well plates containing bacteria, plates are transferred to the 37° C. bacteria incubator for 48 hours. After the incubation, the OD600 mm for each well of the 96-well plates will be measured. […] The % DMSO control is plotted vs compound concentration to generate sigmoid shaped curves. After three runs are complete, the raw data for all three runs is used for IC50 calculations.

[1] = tested on: human HT-29 colon adenocarcinoma xenografts
Description: (§1) In this study, the antitumor effect and toxicity of the three carbazoles against HCT-8 and HT29 colon cancer tumors were compared with treatment beginning when the tumor size reached 150-200 mg (about 7 days after tumor transplantation).
(§2) Eight to twelve-week-old female athymic nude mice (nu/nu, body weight 22-25 g) were obtained from Harlan Sprague Dawley Inc. (Indianapolis, Ind.) and maintained at five mice/cage with water and food ad libitum according to an institutionally approved animal protocol.
(§3) Human ileocecal adenocarcinoma HCT-8 and colon adenocarcinoma HT-29 xenografts were used. The xenografts were initially established by injecting s.c 10^6 cultured cells and tumors were passed several generations by transplanting about 50 mg non-necrotic tumor (2-3 pieces) via a trocar from the passage tumors when the tumors reach to 1-1.5 g.
(§4) Treatment was initiated 7 days after tumor transplantation when the tumors reached 150-200 mg. The mice in the control group received the vehicle (0.2% hydroxypropylmethylcellulose) at 200 μl per 20 g mouse body weight (same as the treatment groups). Five mice were used for each experimental group with 10 tumors (1 tumor each in the left and right side flanks).
(§5) Two axes (mm) of tumor (L, longest axis; W, shortest axis) were measured with the aid of a Vernier caliper. Tumor weight (mg) was estimated using a formula: tumor weight=½ (L×W2). Tumor measurements were taken daily at the same time as drug treatment and 3-4 times a week of post therapy.
(§6) The kinetics of drug-induced toxicities (body weight loss, diarrhea, and lethality) were determined daily for the first 10 days after treatment and every two days thereafter.
(§7) Antitumor activity was assessed by maximum tumor growth inhibition (MTRI) which is the mean tumor weight of treated group (MTWTG) compared with untreated control group (MTWCG) at the same time point (MTRI=MTWTG−MTWCG)÷MTWCG×100%). The tumor doubling time (TDT) was defined as the mean time for the tumor to reach twice its initial weight. Tumor response was expressed as partial tumor response (PR) when tumor weight was reduced at least 50% of the initial tumor size and complete tumor response (CR) was defined as the inability to detect tumor upon palpation at the initial site of tumor appearance.

C. tropicalis = assay: microbe, parasite or virus in culture; type: cell-based; settings: Candida tropicalis
Excerpt: Candida spp. strains: 20 Candida spp. clinical isolates and one laboratory control strain (C. albicans SC5314) was used in the study. In the collection were included:
2 C. tropicalis strains, one ATCC control strain (ATCC 750), and one echinocandin cross-resistant (T3) (11).

HB 101 E. coli = assay: antibacterial cytotoxicity assay, gram(−) bacteria (OD600); type: cell-based; settings: 48 hours, over a range of potencies, FIG. 13A
A. fumigatus = assay: in vitro susceptibility CLSI M38A2, MIC; settings: Aspergillus fumigatus
Description: Eight Aspergillus spp. strains were used throughout the study. Six A. fumigatus, one A. flavus and one A. terreus also were used. The A. fumigatus group included two itraconazole-resistant strains (RIT13 and RIT5 strains) (1), one triazole cross-resistant strain (MUT10) (2, 3), one echinocandin cross-resistant strain (EMFRS678P) (4), and 2 wild type susceptible isolates (R21 and ATCC13073).

[2] = tested on: human HCT-8 ileocecal adenocarcinoma xenografts
Description: as §1, §2, §3, §4, §5, §6, §7

[3] = tested on: clinical and laboratory fungal strains; assay: in vitro susceptibility, summaries over groups of fungal strains; type: cell-based, Aspergillus spp., yeast
Excerpt: Aspergillus spp. […] Moreover, there were no MIC differences between susceptible and azole or echinocandin resistant strains (Table 1).
On average, yeast MICs were 8-fold lower than Aspergillus spp. MIC (Table 1). MICs obtained for Example 15 are compatible or better than MICs for conventional antifungal drugs.

[4] = p.o. at MTD, 5 days on/2 days off per week, Example 15 5, Example 7 30, Example 13 25 mg/kg/d
[5] = same, maximum weight loss of pretreatment body weight

## CCN(CC)CCn1c2ccc3c(c2c2c4c(ccc21)C(=O)CC4)CCC3=O [Example 15]
Bacillus subtilis
  antibacterial effect: antibacterial effect
[1]
  delay of tumor growth (control double time 7.8 days): 76%
  inhibitory rate / tumor growth inhibition: 58%
[1]; [4]
  Antitumor Activity MTGI (%): 58.4 ± 6.4%
[1]; same
  Toxicity (%) lethality: 40%
[1]; same, complete tumor response
  CR (%): 0%
[1]; [5]
  Toxicity (%) MWL: 17.9 ± 6.8%
[1]; same, partial tumor response
  PR (%): 0%
[1]; same, tumor doubling time
  Antitumor Activity TDT: 13.1 ± 2.3 days
C. tropicalis; strain ATCC750, WT, Susceptible, read-out: MIC* (24 hs)
  MIC: 0.08 µM (≈ 0.03 µg/mL)
C. tropicalis; strain ATCC750, WT, Susceptible, read-out: MIC* (48 hs)
  MIC: 0.16 µM (≈ 0.0599 µg/mL)
C. tropicalis; strain T3, Fks1pS645S/P, Echinocandin cross-resistant, read-out: MIC* (24 hs)
  MIC: 0.04 µM (≈ 0.015 µg/mL)
C. tropicalis; strain T3, Fks1pS645S/P, Echinocandin cross-resistant, read-out: MIC* (48 hs)
  MIC: 0.08 µM (≈ 0.03 µg/mL)
HB 101 E. coli
  antibacterial effect: antibacterial effect
A. fumigatus; ATCC13073, read-out: MIC* (24 hs), strain ATCC13073, WT, Susceptible
  MIC: 2.56 µM (≈ 0.959 µg/mL)
A. fumigatus; ATCC13073, read-out: MIC* (48 hs), strain ATCC13073, WT, Susceptible
  MIC: 5.13 µM (≈ 1.92 µg/mL)
A. fumigatus; read-out: 24 hs MIC Geom. Means, A. fumigatus strains
  MIC: 1.59 µM (≈ 0.595 µg/mL)
A. fumigatus; read-out: MIC* (24 hs), strain EMFRS678P, Fks1pS678P, Echinocandin cross-resistant
  MIC: 1.28 µM (≈ 0.479 µg/mL)
A. fumigatus; read-out: MIC* (24 hs), strain MUT10, Cyp51Ap G138C, Triazole cross resistant
  MIC: 0.66 µM (≈ 0.247 µg/mL)
A. fumigatus; read-out: MIC* (24 hs), strain R21, WT, Susceptible
  MIC: 1.28 µM (≈ 0.479 µg/mL)
A. fumigatus; read-out: MIC* (24 hs), strain RIT5, Itraconazole resistant
  MIC: 0.66 µM (≈ 0.247 µg/mL)
A. fumigatus; read-out: MIC* (24 hs), strain RIT13, Itraconazole resistant
  MIC: 1.61 µM (≈ 0.603 µg/mL)
A. fumigatus; read-out: MIC* (48 hs), strain EMFRS678P, Fks1pS678P, Echinocandin cross-resistant
  MIC: 2.56 µM (≈ 0.959 µg/mL)
A. fumigatus; read-out: MIC* (48 hs), strain MUT10, Cyp51Ap G138C, Triazole cross resistant
  MIC: 1.28 µM (≈ 0.479 µg/mL)
A. fumigatus; read-out: MIC* (48 hs), strain R21, WT, Susceptible
  MIC: 2.56 µM (≈ 0.959 µg/mL)
A. fumigatus; read-out: MIC* (48 hs), strain RIT5, Itraconazole resistant
  MIC: 1.28 µM (≈ 0.479 µg/mL)
A. fumigatus; read-out: MIC* (48 hs), strain RIT13, Itraconazole resistant
  MIC: 1.28 µM (≈ 0.479 µg/mL)
[2]; [4]
  Antitumor Activity MTGI (%): 40.0 ± 18.6%
[2]; same
  Toxicity (%) lethality: 0%
[2]; same, complete tumor response
  CR (%): 0%
[2]; [5]
  Toxicity (%) MWL: 10.0 ± 3.8%
[2]; same, partial tumor response
  PR (%): 0%
[2]; same, tumor doubling time
  Antitumor Activity TDT: 7.5 ± 3.5 days
[2]; text b677
  delay of tumor growth compared to the vehicle control (double time 4.8 days): 57%
[3]
  yeast MICs lower than Aspergillus spp. MIC, on average: 8 fold
[3]; A. flavus and A. terreus strains, read-out: 24 hs MIC Geom. Means
  MIC: 0.4 µM (≈ 0.15 µg/mL)
